Assay results reported in patent US9340590B2 (priority 2011, dated 2016).
pIC50: −log10 of the molar value. Read-outs that look alike come from different tables or passages of the source. Positions of bridges follow the written chain, without caps; N, C: chain ends. Non-standard residues stand in square brackets, D forms with d. Residues, ends and D or L forms follow the SMILES beside them. 1Nal = N[C@@H](Cc1cccc2ccccc12)C(=O)O

Biological target: hNav1.7 (Homo sapiens, UniProt Q15858)
Assay: cell-based
Format: cell-based
Details: read-out: IWQ Use Nav1.7

Chain of hNav1.7 (Q15858 whole entry, looked up): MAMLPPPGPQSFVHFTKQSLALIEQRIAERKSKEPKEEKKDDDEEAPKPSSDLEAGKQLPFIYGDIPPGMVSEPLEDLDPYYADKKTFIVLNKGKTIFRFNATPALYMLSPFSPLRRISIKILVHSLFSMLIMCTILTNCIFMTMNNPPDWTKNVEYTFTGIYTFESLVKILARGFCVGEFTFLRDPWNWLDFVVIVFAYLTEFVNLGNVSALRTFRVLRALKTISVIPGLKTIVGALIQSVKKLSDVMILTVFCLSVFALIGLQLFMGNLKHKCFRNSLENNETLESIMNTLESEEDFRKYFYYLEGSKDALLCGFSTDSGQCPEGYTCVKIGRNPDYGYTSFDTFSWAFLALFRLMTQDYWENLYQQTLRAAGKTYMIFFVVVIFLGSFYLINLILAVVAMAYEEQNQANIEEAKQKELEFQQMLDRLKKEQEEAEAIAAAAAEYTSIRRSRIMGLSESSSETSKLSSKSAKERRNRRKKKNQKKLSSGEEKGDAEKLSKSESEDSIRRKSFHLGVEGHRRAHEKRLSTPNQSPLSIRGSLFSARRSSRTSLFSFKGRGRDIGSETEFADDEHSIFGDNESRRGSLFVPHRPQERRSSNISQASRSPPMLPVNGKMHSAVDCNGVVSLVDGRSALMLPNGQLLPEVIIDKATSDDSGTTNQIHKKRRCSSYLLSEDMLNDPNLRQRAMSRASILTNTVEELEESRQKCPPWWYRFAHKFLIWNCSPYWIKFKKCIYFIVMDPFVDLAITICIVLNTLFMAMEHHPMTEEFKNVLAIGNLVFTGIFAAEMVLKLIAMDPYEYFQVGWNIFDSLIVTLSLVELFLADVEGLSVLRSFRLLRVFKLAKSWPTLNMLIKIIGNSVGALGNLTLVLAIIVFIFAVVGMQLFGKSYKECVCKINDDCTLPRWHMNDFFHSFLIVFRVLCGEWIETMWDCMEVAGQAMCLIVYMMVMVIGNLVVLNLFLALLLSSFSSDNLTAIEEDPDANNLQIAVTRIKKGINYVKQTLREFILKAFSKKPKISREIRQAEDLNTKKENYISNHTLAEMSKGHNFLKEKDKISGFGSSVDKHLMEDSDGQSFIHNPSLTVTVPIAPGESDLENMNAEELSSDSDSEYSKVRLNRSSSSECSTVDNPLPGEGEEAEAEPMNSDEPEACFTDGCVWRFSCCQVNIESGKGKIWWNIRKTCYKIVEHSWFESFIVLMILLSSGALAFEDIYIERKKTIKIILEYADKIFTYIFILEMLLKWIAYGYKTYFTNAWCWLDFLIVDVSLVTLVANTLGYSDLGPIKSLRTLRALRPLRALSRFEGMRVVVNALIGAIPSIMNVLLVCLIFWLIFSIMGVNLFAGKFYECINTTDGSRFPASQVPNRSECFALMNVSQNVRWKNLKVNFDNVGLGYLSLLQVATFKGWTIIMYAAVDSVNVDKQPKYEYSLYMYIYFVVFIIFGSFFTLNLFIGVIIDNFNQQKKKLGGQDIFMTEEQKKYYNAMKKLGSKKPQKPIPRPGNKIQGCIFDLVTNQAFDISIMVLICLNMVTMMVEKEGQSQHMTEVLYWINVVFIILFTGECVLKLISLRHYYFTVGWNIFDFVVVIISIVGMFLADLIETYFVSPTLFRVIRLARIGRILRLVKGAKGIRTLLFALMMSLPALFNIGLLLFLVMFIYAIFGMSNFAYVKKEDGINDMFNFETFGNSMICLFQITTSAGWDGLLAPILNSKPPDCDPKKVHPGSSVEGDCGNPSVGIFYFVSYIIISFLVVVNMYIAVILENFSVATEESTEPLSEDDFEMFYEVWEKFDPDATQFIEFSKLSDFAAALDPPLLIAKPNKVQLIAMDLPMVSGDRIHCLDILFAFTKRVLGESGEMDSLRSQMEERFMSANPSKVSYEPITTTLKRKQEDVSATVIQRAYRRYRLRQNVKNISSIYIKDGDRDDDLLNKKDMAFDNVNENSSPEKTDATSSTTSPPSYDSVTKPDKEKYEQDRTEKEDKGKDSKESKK

## CC[C@H](C)[C@@H]1NC(=O)[C@@H]2CSSC[C@@H]3NC(=O)[C@H](C(C)C)NC(=O)[C@H](CC(C)C)NC(=O)[C@H](CC(N)=O)NC(=O)[C@@H]4CCCN4C(=O)[C@H](CCCNC(=N)N)NC(=O)[C@H](CSSC[C@H](NC(=O)[C@@H](N)CC(=O)O)C(=O)N[C@@H](CC(C)C)C(=O)NCC(=O)N[C@@H](Cc4ccccc4)C(=O)N[C@@H](CCSC)C(=O)N[C@@H](CCCNC(=N)N)C(=O)N[C@@H](CCCCN)C(=O)N2)NC(=O)[C@H](CSSC[C@@H](C(=O)N[C@@H](CCCCN)C(=O)N[C@@H](Cc2ccc(O)cc2)C(=O)N[C@H](C(=O)N[C@@H](Cc2ccccc2)C(N)=O)C(C)C)NC(=O)[C@H](Cc2c[nH]c4ccccc24)NC(=O)[C@H](CCCCN)NC(=O)[C@H](Cc2c[nH]cn2)NC(=O)[C@H]([C@@H](C)O)NC(=O)[C@H](CCCNC(=N)N)NC(=O)[C@H](C)NC3=O)NC(=O)[C@H](CCCCN)NC(=O)[C@H](CC(=O)O)NC(=O)[C@H](CC(N)=O)NC(=O)[C@H](CC(=O)O)NC(=O)[C@@H]2CCCN2C1=O [compound 142] (H-DCLGFMRKCIPDNDKCCRPNLVCARTHKWCKYVF-NH2; disulfide 2-17, 9-23, 16-30)
IonWorks Quattro, Use
  pIC50: 6.33

## CC[C@H](C)[C@@H]1NC(=O)[C@@H]2CSSC[C@@H]3NC(=O)[C@H](C(C)C)NC(=O)[C@H](CC(C)C)NC(=O)[C@H](CC(N)=O)NC(=O)[C@@H]4CCCN4C(=O)[C@H](CCC(=O)O)NC(=O)[C@H](CSSC[C@H](NC(=O)[C@@H](N)CC(=O)O)C(=O)N[C@@H](CC(C)C)C(=O)NCC(=O)N[C@@H](Cc4ccccc4)C(=O)N[C@@H](CCSC)C(=O)N[C@@H](CCCNC(=N)N)C(=O)N[C@@H](CCCCN)C(=O)N2)NC(=O)[C@H](CSSC[C@@H](C(=O)N[C@@H](CCCCN)C(=O)N[C@@H](Cc2ccc(O)cc2)C(=O)N[C@H](C(=O)N[C@@H](Cc2ccccc2)C(N)=O)C(C)C)NC(=O)[C@H](Cc2c[nH]c4ccccc24)NC(=O)[C@H](CCCCN)NC(=O)[C@H](Cc2c[nH]cn2)NC(=O)[C@H]([C@@H](C)O)NC(=O)[C@H](CCCNC(=N)N)NC(=O)[C@H](CO)NC3=O)NC(=O)[C@H](CCCCN)NC(=O)[C@H](CC(=O)O)NC(=O)[C@H](CC(N)=O)NC(=O)[C@H](CC(=O)O)NC(=O)[C@@H]2CCCN2C1=O [compound 148] (H-DCLGFMRKCIPDNDKCCEPNLVCSRTHKWCKYVF-NH2; disulfide 2-17, 9-23, 16-30)
  pIC50: 6.66

## CC[C@H](C)[C@@H]1NC(=O)[C@@H]2CSSC[C@@H]3NC(=O)[C@H](C(C)C)NC(=O)[C@H](CC(C)C)NC(=O)[C@H](CC(N)=O)NC(=O)[C@H](CCCNC(=N)N)NC(=O)[C@H](CCCNC(=N)N)NC(=O)[C@H](CSSC[C@H](NC(=O)[C@@H](N)CC(=O)O)C(=O)N[C@@H](CC(C)C)C(=O)NCC(=O)N[C@@H](Cc4ccccc4)C(=O)N[C@@H](CCSC)C(=O)N[C@@H](CCCNC(=N)N)C(=O)N[C@@H](CCCCN)C(=O)N2)NC(=O)[C@H](CSSC[C@@H](C(=O)N[C@@H](CCCCN)C(=O)N[C@@H](Cc2ccc(O)cc2)C(=O)N[C@H](C(=O)N[C@@H](Cc2ccccc2)C(N)=O)C(C)C)NC(=O)[C@H](Cc2c[nH]c4ccccc24)NC(=O)[C@H](CCCCN)NC(=O)[C@H](Cc2c[nH]cn2)NC(=O)[C@H]([C@@H](C)O)NC(=O)[C@H](CCCNC(=N)N)NC(=O)[C@H](CO)NC3=O)NC(=O)[C@H](CCCCN)NC(=O)[C@H](CC(=O)O)NC(=O)[C@H](CC(N)=O)NC(=O)[C@H](CC(=O)O)NC(=O)[C@@H]2CCCN2C1=O [compound 157] (H-DCLGFMRKCIPDNDKCCRRNLVCSRTHKWCKYVF-NH2; disulfide 2-17, 9-23, 16-30)
IonWorks Quattro, Use
  pIC50: 7.15

## CC[C@H](C)[C@@H]1NC(=O)[C@@H]2CSSC[C@@H]3NC(=O)[C@H](CCCNC(=N)N)NC(=O)[C@H](CC(C)C)NC(=O)[C@H](CC(N)=O)NC(=O)[C@@H]4CCCN4C(=O)[C@H](CCCNC(=N)N)NC(=O)[C@H](CSSC[C@H](NC(=O)[C@@H](N)CC(=O)O)C(=O)N[C@@H](CC(C)C)C(=O)NCC(=O)N[C@@H](Cc4ccccc4)C(=O)N[C@@H](CCSC)C(=O)N[C@@H](CCCNC(=N)N)C(=O)N[C@@H](CCCCN)C(=O)N2)NC(=O)[C@H](CSSC[C@@H](C(=O)N[C@@H](CCCCN)C(=O)N[C@@H](Cc2ccc(O)cc2)C(=O)N[C@H](C(=O)N[C@@H](Cc2ccccc2)C(N)=O)C(C)C)NC(=O)[C@H](Cc2c[nH]c4ccccc24)NC(=O)[C@H](CCCCN)NC(=O)[C@H](Cc2c[nH]cn2)NC(=O)[C@H]([C@@H](C)O)NC(=O)[C@H](CCCNC(=N)N)NC(=O)[C@H](CO)NC3=O)NC(=O)[C@H](CCCCN)NC(=O)[C@H](CC(=O)O)NC(=O)[C@H](CC(N)=O)NC(=O)[C@H](CC(=O)O)NC(=O)[C@@H]2CCCN2C1=O [compound 158] (H-DCLGFMRKCIPDNDKCCRPNLRCSRTHKWCKYVF-NH2; disulfide 2-17, 9-23, 16-30)
IonWorks Quattro, Use
  pIC50: 7.22

## CC[C@H](C)[C@@H]1NC(=O)[C@@H]2CSSC[C@@H]3NC(=O)[C@H](C(C)C)NC(=O)[C@H](CC(C)C)NC(=O)[C@H](CC(N)=O)NC(=O)[C@@H]4CCCN4C(=O)[C@H](CCCNC(=N)N)NC(=O)[C@H](CSSC[C@H](NC(=O)[C@@H](N)CC(=O)O)C(=O)N[C@@H](CC(C)C)C(=O)NCC(=O)N[C@@H](Cc4ccccc4)C(=O)N[C@@H](CCSC)C(=O)N[C@@H](CCCNC(=N)N)C(=O)N[C@@H](CCCCN)C(=O)N2)NC(=O)[C@H](CSSC[C@@H](C(=O)N[C@@H](CCCCN)C(=O)N[C@@H](CCCNC(=N)N)C(=O)N[C@H](C(=O)N[C@@H](Cc2ccccc2)C(N)=O)C(C)C)NC(=O)[C@H](Cc2c[nH]c4ccccc24)NC(=O)[C@H](CCCCN)NC(=O)[C@H](Cc2c[nH]cn2)NC(=O)[C@H]([C@@H](C)O)NC(=O)[C@H](CCCNC(=N)N)NC(=O)[C@H](CO)NC3=O)NC(=O)[C@H](CCCCN)NC(=O)[C@H](CC(=O)O)NC(=O)[C@H](CC(N)=O)NC(=O)[C@H](CC(=O)O)NC(=O)[C@@H]2CCCN2C1=O [compound 159] (H-DCLGFMRKCIPDNDKCCRPNLVCSRTHKWCKRVF-NH2; disulfide 2-17, 9-23, 16-30)
  pIC50: 5.99

## CC[C@H](C)[C@@H]1NC(=O)[C@@H]2CSSC[C@@H]3NC(=O)[C@H](C(C)C)NC(=O)[C@H](CC(C)C)NC(=O)[C@H](CC(N)=O)NC(=O)[C@@H]4CCCN4C(=O)[C@H](CCCNC(=N)N)NC(=O)[C@H](CSSC[C@H](NC(=O)[C@@H](N)CC(=O)O)C(=O)N[C@@H](CC(C)C)C(=O)NCC(=O)N[C@@H](Cc4ccccc4)C(=O)N[C@@H](CCSC)C(=O)N[C@@H](CCCNC(=N)N)C(=O)N[C@@H](CCCCN)C(=O)N2)NC(=O)[C@H](CSSC[C@@H](C(=O)N[C@@H](CCCCN)C(=O)N[C@@H](Cc2cccc4ccccc24)C(=O)N[C@H](C(=O)N[C@@H](Cc2ccccc2)C(N)=O)C(C)C)NC(=O)[C@H](Cc2c[nH]c4ccccc24)NC(=O)[C@H](CCCCN)NC(=O)[C@H](Cc2c[nH]cn2)NC(=O)[C@H]([C@@H](C)O)NC(=O)[C@H](CCCNC(=N)N)NC(=O)[C@H](CO)NC3=O)NC(=O)[C@H](CCCCN)NC(=O)[C@H](CC(=O)O)NC(=O)[C@H](CC(N)=O)NC(=O)[C@H](CC(=O)O)NC(=O)[C@@H]2CCCN2C1=O [compound 167] (H-DCLGFMRKCIPDNDKCCRPNLVCSRTHKWCK[1Nal]VF-NH2; disulfide 2-17, 9-23, 16-30)
Table 25, IonWorks Quattro, use, […]
  pIC50: 8.40

## CSCC[C@@H]1NC(=O)[C@H](Cc2ccccc2)NC(=O)CNC(=O)[C@H](CC(C)C)NC(=O)[C@@H](NC(=O)[C@@H](N)CC(=O)O)CSSC[C@@H]2NC(=O)[C@@H]3CSSC[C@@H](C(=O)N[C@@H](CCCCN)C(=O)N[C@@H](Cc4ccc(O)cc4)C(=O)N[C@H](C(=O)N[C@@H](Cc4ccccc4)C(N)=O)C(C)C)NC(=O)[C@H](Cc4c[nH]c5ccccc45)NC(=O)[C@H](CCCCN)NC(=O)[C@H](Cc4c[nH]cn4)NC(=O)[C@H]([C@@H](C)O)NC(=O)[C@H](CCCNC(=N)N)NC(=O)[C@H](CO)NC(=O)[C@H](CSSC[C@H](NC(=O)[C@H](CCCCN)NC(=O)[C@H](CCCNC(=N)N)NC1=O)C(=O)N[C@@H](Cc1ccc(O)cc1)C(=O)N1CCC[C@H]1C(=O)N[C@@H](CC(=O)O)C(=O)N[C@@H](CC(N)=O)C(=O)N[C@@H](CC(=O)O)C(=O)N[C@@H](CCCCN)C(=O)N3)NC(=O)[C@H](C(C)C)NC(=O)[C@H](CC(C)C)NC(=O)[C@H](CC(N)=O)NC(=O)[C@@H]1CCCN1C(=O)[C@H](CCCNC(=N)N)NC2=O [compound 299] (H-DCLGFMRKCYPDNDKCCRPNLVCSRTHKWCKYVF-NH2; disulfide 2-17, 9-23, 16-30)
IonWorks Quattro, Use
  pIC50: 6.85

## CSCC[C@@H]1NC(=O)[C@H](Cc2ccccc2)NC(=O)CNC(=O)[C@H](CC(C)C)NC(=O)[C@@H](NC(=O)[C@@H](N)CC(=O)O)CSSC[C@@H]2NC(=O)[C@@H]3CSSC[C@@H](C(=O)N[C@@H](CCCCN)C(=O)N[C@@H](Cc4ccc(O)cc4)C(=O)N[C@H](C(=O)N[C@@H](Cc4ccccc4)C(N)=O)C(C)C)NC(=O)[C@H](Cc4c[nH]c5ccccc45)NC(=O)[C@H](CCCCN)NC(=O)[C@H](Cc4c[nH]cn4)NC(=O)[C@H]([C@@H](C)O)NC(=O)[C@H](CCCNC(=N)N)NC(=O)[C@H](CO)NC(=O)[C@H](CSSC[C@H](NC(=O)[C@H](CCCCN)NC(=O)[C@H](CCCNC(=N)N)NC1=O)C(=O)N[C@@H](C(C)C)C(=O)N1CCC[C@H]1C(=O)N[C@@H](CC(=O)O)C(=O)N[C@@H](CC(N)=O)C(=O)N[C@@H](CC(=O)O)C(=O)N[C@@H](CCCCN)C(=O)N3)NC(=O)[C@H](C(C)C)NC(=O)[C@H](CC(C)C)NC(=O)[C@H](CC(N)=O)NC(=O)[C@@H]1CCCN1C(=O)[C@H](CCCNC(=N)N)NC2=O [compound 301] (H-DCLGFMRKCVPDNDKCCRPNLVCSRTHKWCKYVF-NH2; disulfide 2-17, 9-23, 16-30)
IonWorks Quattro, Use
  pIC50: 7.00
